#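 These data come from cells grown in 96-well plates and exposed to compound for 48 hours at five concentrations. TGI: concentration producing complete growth inhibition.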
# Key:
# Experiment in all cases: inhibition of tumour cell growth, NCI panel, 48 h
# [1] = test system: SF-539 CNS
# [2] = test system: 786-0 renal
# [3] = test system: HCT-15 colon
# [4] = test system: SR leukemia
# [5] = test system: SF-295 CNS
# [6] = test system: DU-145 prostate
# [7] = test system: OVCAR-5 ovarian
# [8] = test system: ACHN renal
# [9] = test system: SK-OV-3 ovarian
# [10] = test system: HOP-92 NSCLC
# [11] = test system: HL-60(TB) leukemia
# [12] = test system: LOX IMVI melanoma
# [13] = test system: OVCAR-4 ovarian
# [14] = test system: SF-268 CNS
# [15] = test system: EKVX NSCLC
# [16] = test system: SK-MEL-5 melanoma
# [17] = test system: SW-620 colon
# [18] = test system: SK-MEL-28 melanoma
# [19] = test system: PC-3 prostate
# [20] = test system: NCI-H23 lung
# [21] = test system: SK-MEL-2 melanoma
# [22] = test system: BT-549 breast
# [23] = test system: UACC-62 melanoma
# [24] = test system: MDA-N
# [25] = test system: OVCAR-3 ovarian
# [26] = test system: CCRF-CEM leukemia
# [27] = test system: MDA-MB-231 breast
# [28] = test system: CAKI-1 renal
# [29] = test system: MCF7 breast
# [30] = test system: UO-31 renal
# [31] = test system: SN12C renal
# [32] = test system: OVCAR-8 ovarian
# [33] = test system: RPMI-8226 leukemia
# [34] = test system: U251 CNS
# [35] = test system: SNB-75 CNS
# [36] = test system: A498 renal
# [37] = test system: NCI-H460 lung
# [38] = test system: COLO 205 colon
# [39] = test system: TK-10 renal
# [40] = test system: T-47D breast
# [41] = test system: MALME-3M melanoma
# [42] = test system: HT29 colon
# [43] = test system: NCI/ADR-RES ovarian
# [44] = test system: HS 578T breast
# [45] = test system: MDA-MB-435
# [46] = test system: KM12 colon
# [47] = test system: IGROV1 ovarian
# [48] = test system: RXF 393 renal
# [49] = test system: SNB-19 CNS
# [50] = test system: NCI-H522 lung
# [51] = test system: NCI-H226 lung
# [52] = test system: A549 NSCLC
# [53] = test system: UACC-257 melanoma
# [54] = test system: HOP-62 NSCLC
# [55] = test system: K-562 leukemia
# [56] = test system: MOLT-4 leukemia
# [57] = test system: HCT-116 colon
# [58] = test system: M14 melanoma
# [59] = test system: HCC-2998 colon
compound,measurement,setting,value
Nc1nc(SCC(=O)O)[nH]c(=O)c1N,TGI,[1],> 100 µM
same,TGI,[2],> 100 µM
same,TGI,[3],> 100 µM
same,TGI,[4],77.7 µM
same,TGI,[5],> 100 µM
same,TGI,[6],> 100 µM
same,TGI,[7],> 100 µM
same,TGI,[8],> 100 µM
same,TGI,[9],> 100 µM
same,TGI,[10],> 100 µM
same,TGI,[11],> 100 µM
same,TGI,[12],42.8 µM
same,TGI,[13],> 100 µM
same,TGI,[14],> 100 µM
same,TGI,[15],> 100 µM
same,TGI,[16],> 100 µM
same,TGI,[17],> 100 µM
same,TGI,[18],> 100 µM
same,TGI,[19],> 100 µM
same,TGI,[20],> 100 µM
same,TGI,[21],> 100 µM
same,TGI,[22],> 100 µM
same,TGI,[23],> 100 µM
same,TGI,[24],> 100 µM
same,TGI,[25],> 100 µM
same,TGI,[26],7.24 µM
same,TGI,[27],> 100 µM
same,TGI,[28],> 100 µM
same,TGI,[29],> 100 µM
same,TGI,[30],> 100 µM
same,TGI,[31],30.5 µM
same,TGI,[32],> 100 µM
same,TGI,[33],99.7 µM
same,TGI,[34],> 100 µM
same,TGI,[35],> 100 µM
same,TGI,[36],> 100 µM
same,TGI,[37],> 100 µM
same,TGI,[38],> 100 µM
same,TGI,[39],> 100 µM
same,TGI,[40],> 100 µM
same,TGI,[41],> 100 µM
same,TGI,[42],> 100 µM
same,TGI,[43],> 100 µM
same,TGI,[44],> 100 µM
same,TGI,[45],> 100 µM
same,TGI,[46],> 100 µM
same,TGI,[47],> 100 µM
same,TGI,[48],> 100 µM
same,TGI,[49],> 100 µM
same,TGI,[50],> 100 µM
same,TGI,[51],> 100 µM
same,TGI,[52],> 100 µM
same,TGI,[53],> 100 µM
same,TGI,[54],> 100 µM
same,TGI,[55],36.9 µM
same,TGI,[56],> 100 µM
same,TGI,[57],> 100 µM
same,TGI,[58],> 100 µM
CC(C)(C)c1cc(C(C)(C)C)c(P=C(Cl)Cl)c(C(C)(C)C)c1 (stereo not given),TGI,[1],> 100 µM
same,TGI,[2],> 100 µM
same,TGI,[3],> 100 µM
same,TGI,[4],> 100 µM
same,TGI,[5],> 100 µM
same,TGI,[6],> 100 µM
same,TGI,[7],> 100 µM
same,TGI,[8],> 100 µM
same,TGI,[9],> 100 µM
same,TGI,[10],> 100 µM
same,TGI,[11],> 100 µM
same,TGI,[12],> 100 µM
same,TGI,[13],> 100 µM
same,TGI,[14],> 100 µM
same,TGI,[15],> 100 µM
same,TGI,[16],> 100 µM
same,TGI,[17],> 100 µM
same,TGI,[18],> 100 µM
same,TGI,[19],> 100 µM
same,TGI,[20],> 100 µM
same,TGI,[21],> 100 µM
same,TGI,[22],> 100 µM
same,TGI,[23],> 100 µM
same,TGI,[24],> 100 µM
same,TGI,[25],> 100 µM
same,TGI,[26],> 100 µM
same,TGI,[27],> 100 µM
same,TGI,[28],> 100 µM
same,TGI,[29],> 100 µM
same,TGI,[59],> 100 µM
same,TGI,[30],> 100 µM
same,TGI,[31],> 100 µM
same,TGI,[32],> 100 µM
same,TGI,[33],> 100 µM
same,TGI,[34],> 100 µM
same,TGI,[35],> 100 µM
same,TGI,[36],> 100 µM
same,TGI,[37],> 100 µM
same,TGI,[38],> 100 µM
same,TGI,[39],> 100 µM
same,TGI,[40],> 100 µM
same,TGI,[41],> 100 µM
same,TGI,[42],> 100 µM
same,TGI,[43],> 100 µM
same,TGI,[44],> 100 µM
same,TGI,[45],> 100 µM
same,TGI,[46],> 100 µM
same,TGI,[47],> 100 µM
same,TGI,[49],> 100 µM
same,TGI,[50],> 100 µM
same,TGI,[51],> 100 µM
same,TGI,[52],> 100 µM
same,TGI,[53],> 100 µM
same,TGI,[54],> 100 µM
same,TGI,[55],> 100 µM
same,TGI,[56],> 100 µM
same,TGI,[57],> 100 µM
same,TGI,[58],> 100 µM
CC(=O)O[C@H]1CC[C@@]2(C)C(=CC[C@H]3[C@@H]4C[C@H](N5CCN(C)CC5)[C@H](OC(C)=O)[C@@]4(C)CC[C@@H]32)C1,TGI,[1],13.7 µM
same,TGI,[2],35.3 µM
same,TGI,[3],26.6 µM
same,TGI,[4],11.4 µM
same,TGI,[5],45.7 µM
same,TGI,[6],> 100 µM
same,TGI,[7],76.9 µM
same,TGI,[8],> 100 µM
same,TGI,[9],> 65.8 µM
same,TGI,[10],92.7 µM
same,TGI,[11],6.9 µM
same,TGI,[12],7.83 µM
same,TGI,[13],32.6 µM
same,TGI,[14],42.7 µM
same,TGI,[15],59.9 µM
same,TGI,[16],12.5 µM
same,TGI,[17],29.8 µM
same,TGI,[18],26.1 µM
same,TGI,[19],32.5 µM
same,TGI,[20],48.3 µM
same,TGI,[21],33.3 µM
same,TGI,[22],32.8 µM
same,TGI,[23],26.4 µM
same,TGI,[24],26.5 µM
same,TGI,[25],21.5 µM
same,TGI,[26],16 µM
same,TGI,[27],34.3 µM
same,TGI,[28],> 66.5 µM
same,TGI,[29],15.3 µM
same,TGI,[59],30.1 µM
same,TGI,[30],> 90.9 µM
same,TGI,[31],67.8 µM
same,TGI,[32],30.5 µM
same,TGI,[33],14.7 µM
same,TGI,[34],40.5 µM
same,TGI,[35],62.6 µM
same,TGI,[36],48.3 µM
same,TGI,[37],49.4 µM
same,TGI,[38],32.8 µM
same,TGI,[39],> 100 µM
same,TGI,[40],41.2 µM
same,TGI,[41],24.8 µM
same,TGI,[42],12.8 µM
same,TGI,[43],44.6 µM
same,TGI,[44],61.8 µM
same,TGI,[45],19.2 µM
same,TGI,[46],32.3 µM
same,TGI,[47],37.9 µM
same,TGI,[48],40.3 µM
same,TGI,[49],58.9 µM
same,TGI,[50],34.9 µM
same,TGI,[51],> 85.6 µM
same,TGI,[52],36 µM
same,TGI,[53],17.3 µM
same,TGI,[54],52.6 µM
same,TGI,[55],4.07 µM
same,TGI,[56],16.8 µM
same,TGI,[57],25.7 µM
same,TGI,[58],8.2 µM

# — PubChem BioAssay (NCI)
